These are literature values, as cited in patent publication US8440213B2, “Pesticides formulations” (priority 2003, dated 2013).

Values after ≈ are worked out from the molar mass of the structure shown. Bounds are passed on as bounds.

For the data set the following is noted: in water, at 20° C.
On to `CCOP(=S)(OCC)Oc1nc(Cl)c(Cl)cc1Cl` [Chlorpyriphos], for which the Solubility (in general, the concentration that dissolves in the medium under given conditions) was 1.4 µg/mL (≈ 3.99 µM).
Regarding `CCOc1ccc(C(C)(C)COCc2cccc(Oc3ccccc3)c2)cc1` [Etofenprox, 2-(4-ethoxyphenyl)-2-methylpropyl 3-phenoxybenzyl ether], the Solubility is less than 0.001 µg/mL.
As for `COc1nn(CSP(=S)(OC)OC)c(=O)s1` [Methidathion], the Solubility was 200 µg/mL (≈ 662 µM).
Take `CCCN(CCC)c1c([N+](=O)[O-])cc(C(F)(F)F)cc1[N+](=O)[O-]` [Trifluralin, α,α,α,-trifluoro-2,6-dinitro-N,N-dipropyl-p-toluidine]: the Solubility is 0.4 µg/mL (≈ 1.19 µM).
